How the values were obtained:
kochia = experiment: Test A postemergence; format: in vivo, Kochia scoparia; conditions: 0 to 100 scale (0 no effect, 100 complete control), approx. 10 d
In short: (§1)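 Visual injury score, 0 (no effect) to 100 (complete control), taken about 10 d after treatment against untreated greenhouse controls. Chemicals formulated in non-phytotoxic solvent plus surfactant; preemergence by directed soil spray onto sown loam/sand, postemergence onto one- to two-leaf plants.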

galium = experiment: Test A postemergence; format: in vivo, Galium aparine; conditions: 0 to 100 scale (0 no effect, 100 complete control), approx. 10 d
In short: as §1

chickweed = experiment: Test D preemergence; format: in vivo, Stellaria media; conditions: for Plant response rating: Chickweed: scale 0 to 100
Excerpt: (§2) Seeds of plant species selected from bluegrass (annual bluegrass, Poa annua), blackgrass (Alopecurus myosuroides), canarygrass (Phalaris minor), chickweed (common chickweed, Stellaria media), galium (catchweed bedstraw, Galium aparine), bromegrass, down (downy bromegrass, Bromus tectorum), Russian thistle (Salsola kali), field poppy (Papaver rhoeas), field violet (Viola arvensis), foxtail, green (green foxtail, Setaria viridis), deadnettle (henbit deadnettle, Lamium amplexicaule), ryegrass, Ital. (Italian ryegrass, Lolium multiflorum), kochia (Kochia scoparia), lambsquarters (Chenopodium album), oilseed rape (Brassica napus), pigweed (Amaranthus retroflexus), chamomile (scentless chamomile, Matricaria inodora), speedwell (bird's-eye speedwell, Veronica persica), barley, spring (spring barley, Hordeum vulgare), wheat, spring (spring wheat, Triticum aestivum), buckwheat, wild (wild buckwheat, Polygonum convolvulus), wild mustard (Sinapis arvensis), oat, wild (wild oat, Avena fatua), radish, wild (wild radish, Raphanus raphanistrum), […]), barley, winter (winter barley, Hordeum vulgare), and wheat, winter (winter wheat, Triticum aestivum) were planted into a silt loam soil and treated preemergence with test chemicals formulated in a non-phytotoxic solvent mixture which included a surfactant. At the same time, these species were planted in pots containing Sunshine Redi-Earth® planting medium comprising spaghnum peat moss, vermiculite, starter nutrients and dolomitic limestone and treated with postemergence applications of the test chemicals formulated in the same manner. Plants ranged in height from 2 to 18 cm (1- to 4-leaf stage). Treated plants and controls were maintained in a controlled growth environment for 14 to 21 d after which time all species were compared to controls and visually evaluated. […] A dash (-) response means no test result.

Russian thistle = experiment: Test D preemergence; format: in vivo, Salsola kali; conditions: for Plant response rating: Russian Thistle: scale 0 to 100
Excerpt: as §2

foxtail, green = experiment: Test D preemergence; format: in vivo, Setaria viridis; conditions: for Plant response rating: Foxtail, Green: scale 0 to 100
Excerpt: as §2

deadnettle = experiment: Test D preemergence; format: in vivo, Lamium amplexicaule; conditions: for Plant response rating: Deadnettle: scale 0 to 100
Excerpt: as §2

lambsquarters [1] = experiment: Test D preemergence; format: in vivo, Chenopodium album; conditions: for Plant response rating: Lambsquarters: scale 0 to 100
Excerpt: as §2

oat, wild [2] = experiment: Test D preemergence; format: in vivo, Avena fatua; conditions: for Plant response rating: Oat, Wild: scale 0 to 100
Excerpt: as §2

field violet = experiment: Test D postemergence; format: in vivo, Viola arvensis; conditions: scale 0 to 100
Excerpt: as §2

lambsquarters [3] = experiment: Test D postemergence; format: in vivo, Chenopodium album; conditions: scale 0 to 100
Excerpt: as §2

oilseed rape = experiment: Test D postemergence; format: in vivo, Brassica napus; conditions: scale 0 to 100
Excerpt: as §2

speedwell = experiment: Test D postemergence; format: in vivo, Veronica persica; conditions: scale 0 to 100
Excerpt: as §2

wheat, spring = experiment: Test D postemergence; format: in vivo, Triticum aestivum; conditions: scale 0 to 100
Excerpt: as §2

wheat, winter = experiment: Test D postemergence; format: in vivo, Triticum aestivum; conditions: scale 0 to 100
Excerpt: as §2

buckwheat, wild = experiment: Test D postemergence; format: in vivo, Polygonum convolvulus; conditions: scale 0 to 100
Excerpt: as §2

wild mustard = experiment: Test D postemergence; format: in vivo, Sinapis arvensis; conditions: scale 0 to 100
Excerpt: as §2

oat, wild [4] = experiment: Test D postemergence; format: in vivo, Avena fatua; conditions: scale 0 to 100
Excerpt: as §2

radish, wild = experiment: Test D postemergence; format: in vivo, Raphanus raphanistrum; conditions: scale 0 to 100
Excerpt: as §2

[5] = 16 g ai/ha, 0 is no effect, 100 is complete control

FC(F)(F)COc1nc(-c2ccc(Cl)cc2)nn1Cc1ccnc(C(F)(F)F)c1 [Compound 31]
Plant response rating, Kochia (kochia; 125 g ai/ha): 90 | Plant response rating, Kochia (kochia; 500 g ai/ha): 90 | Plant response rating, Galium (galium; 125 g ai/ha): 70 | Plant response rating, Galium (galium; 500 g ai/ha): 90 | Plant response rating (0 to 100), Chickweed (chickweed; [5]): 80 | Plant response rating: Chickweed (chickweed; 31 g ai/ha): 90 | Plant response rating: Chickweed (chickweed; 62 g ai/ha): 100 | Plant response rating: Chickweed (chickweed; 125 g ai/ha): 100 | Plant response rating (0 to 100), Russian Thistle (Russian thistle; [5]): 70 | Plant response rating: Russian Thistle (Russian thistle; 62 g ai/ha): 85 | Plant response rating: Russian Thistle (Russian thistle; 125 g ai/ha): 90 | Plant response rating (0 to 100), Foxtail, Green (foxtail, green; [5]): 95 | Plant response rating: Foxtail, Green (foxtail, green; 62 g ai/ha): 100 | Plant response rating: Foxtail, Green (foxtail, green; 125 g ai/ha): 100 | Plant response rating (0 to 100), Deadnettle (deadnettle; [5]): 80 | Plant response rating: Deadnettle (deadnettle; 31 g ai/ha): 80 | Plant response rating: Deadnettle (deadnettle; 62 g ai/ha): 90 | Plant response rating: Deadnettle (deadnettle; 125 g ai/ha): 100 | Plant response rating (0 to 100), Lambsquarters (lambsquarters [1]; [5]): 75 | Plant response rating: Lambsquarters (lambsquarters [1]; 62 g ai/ha): 85 | Plant response rating: Lambsquarters (lambsquarters [1]; 125 g ai/ha): 90 | Plant response rating (0 to 100), Oat, Wild (oat, wild [2]; [5]): 35 | Plant response rating: Oat, Wild (oat, wild [2]; 62 g ai/ha): 55 | Plant response rating: Oat, Wild (oat, wild [2]; 125 g ai/ha): 75 | Plant response rating: Field Violet (field violet; 16 g ai/ha): 100 | Plant response rating: Field Violet (field violet; 31 g ai/ha): 100 | Plant response rating: Field Violet (field violet; 62 g ai/ha): 100 | Plant response rating: Field Violet (field violet; 125 g ai/ha): 100 | Plant response rating: Lambsquarters (lambsquarters [3]; 16 g ai/ha): 75 | Plant response rating: Lambsquarters (lambsquarters [3]; 31 g ai/ha): 95 | Plant response rating: Lambsquarters (lambsquarters [3]; 62 g ai/ha): 85 | Plant response rating: Lambsquarters (lambsquarters [3]; 125 g ai/ha): 90 | Plant response rating: Oilseed Rape (oilseed rape; 16 g ai/ha): 80 | Plant response rating: Oilseed Rape (oilseed rape; 31 g ai/ha): 85 | Plant response rating: Oilseed Rape (oilseed rape; 62 g ai/ha): 90 | Plant response rating: Oilseed Rape (oilseed rape; 125 g ai/ha): 100 | Plant response rating: Speedwell (speedwell; 16 g ai/ha): 95 | Plant response rating: Speedwell (speedwell; 31 g ai/ha): 90 | Plant response rating: Speedwell (speedwell; 62 g ai/ha): 100 | Plant response rating: Speedwell (speedwell; 125 g ai/ha): 100 | Plant response rating: Wheat, Spring (wheat, spring; 16 g ai/ha): 30 | Plant response rating: Wheat, Spring (wheat, spring; 31 g ai/ha): 35 | Plant response rating: Wheat, Spring (wheat, spring; 62 g ai/ha): 40 | Plant response rating: Wheat, Spring (wheat, spring; 125 g ai/ha): 45 | Plant response rating: Wheat, Winter (wheat, winter; 16 g ai/ha): 20 | Plant response rating: Wheat, Winter (wheat, winter; 31 g ai/ha): 20 | Plant response rating: Wheat, Winter (wheat, winter; 62 g ai/ha): 20 | Plant response rating: Wheat, Winter (wheat, winter; 125 g ai/ha): 30 | Plant response rating: Buckwheat, Wild (buckwheat, wild; 16 g ai/ha): 65 | Plant response rating: Buckwheat, Wild (buckwheat, wild; 31 g ai/ha): 75 | Plant response rating: Buckwheat, Wild (buckwheat, wild; 62 g ai/ha): 75 | Plant response rating: Buckwheat, Wild (buckwheat, wild; 125 g ai/ha): 75 | Plant response rating: Mustard, Wild (wild mustard; 16 g ai/ha): 100 | Plant response rating: Mustard, Wild (wild mustard; 31 g ai/ha): 100 | Plant response rating: Mustard, Wild (wild mustard; 62 g ai/ha): 100 | Plant response rating: Mustard, Wild (wild mustard; 125 g ai/ha): 100 | Plant response rating: Oat, Wild (oat, wild [4]; 16 g ai/ha): 35 | Plant response rating: Oat, Wild (oat, wild [4]; 31 g ai/ha): 45 | Plant response rating: Oat, Wild (oat, wild [4]; 62 g ai/ha): 70 | Plant response rating: Oat, Wild (oat, wild [4]; 125 g ai/ha): 75 | Plant response rating: Radish, Wild (radish, wild; 16 g ai/ha): 95 | Plant response rating: Radish, Wild (radish, wild; 31 g ai/ha): 95 | Plant response rating: Radish, Wild (radish, wild; 62 g ai/ha): 95 | Plant response rating: Radish, Wild (radish, wild; 125 g ai/ha): 100

Reference: patent US10681909B2, “Herbicidal triazoles” (FMC Corporation, priority 2014, dated 2020)
